Reference: the NIST ThermoML archive (doi:10.1021/je100526j)

Assays:
[1] = xn = mol fraction of the nth substance listed; settings: 101 kPa, Liquid
[2] = for mass density: 101 kPa, Liquid

c1ccccc1 [benzene] + c1cc[nH]c1
[1], x2 = 0
Settings | mass density [kg/m3]
298.15 K | 873.63
308.15 K | 862.91
318.15 K | 852.12
328.15 K | 841.24
338.15 K | 830.26

c1ccccc1 [benzene]
[2]
Settings | mass density [kg/m3]
298.15 K | 873.63
308.15 K | 862.91
318.15 K | 852.12
328.15 K | 841.24
338.15 K | 830.26

Settings | Normal melting temperature [°C]
[2], Crystal, visual observation | 5.5

c1cc[nH]c1 [pyrrole] + C1CCCCC1
mass density [kg/m3], [1]
Settings | 298.15 K | 308.15 K | 318.15 K | 328.15 K | 338.15 K
x1 = 0.0749 | 786.03 | 776.43 | 766.72 | 756.88 | 746.91
x1 = 0.1409 | 797.78 | 788.17 | 778.44 | 768.58 | 758.6
x1 = 0.1864 | 805.48 | 795.87 | 786.14 | 776.3 | 766.32
x1 = 0.2637 | 819.91 | 810.32 | 800.64 | 790.86 | 780.96
x1 = 0.3549 | 837.14 | 827.63 | 818.03 | 808.35 | 798.62
x1 = 0.4446 | 854.23 | 844.82 | 835.34 | 825.81 | 816.3
x1 = 0.5058 | 866.13 | 856.8 | 847.4 | 837.91 | 828.38
x1 = 0.6032 | 884.76 | 875.58 | 866.33 | 856.97 | 847.56
x1 = 0.6712 | 898.56 | 889.48 | 880.32 | 870.17 | 861.68
x1 = 0.7183 | 908.28 | 899.28 | 890.2 | 881.03 | 871.79
x1 = 0.761 | 916.78 | 907.83 | 898.79 | 889.65 | 880.41
x1 = 0.8376 | 932.14 | 923.29 | 914.35 | 905.29 | 896.1
x1 = 0.8824 | 941.41 | 932.59 | 923.7 | 914.69 | 905.55
x1 = 0.9424 | 953.79 | 945.05 | 936.21 | 927.25 | 918.18
x1 = 1 | 965.54 | 956.83 | 948.03 | 939.14 | 930.13
